target: T1, human PAH with the R408W mutation (A375 R408W cells) (Homo sapiens, UniProt P00439, R408W); experiment: Cell Based Phenylalanine Flux Assay; settings: A375 cells expressing R408W PAH; 24 hrs with compound, then 20 μM sepiapterin and 800 μM 13C9,15N-Phenylalanine for 4 hours; 13C-Tyrosine by LC-MS; average where tested multiple times
T1 construct: expressed in transfected cells
T1 sequence (P00439 1-452 R408W): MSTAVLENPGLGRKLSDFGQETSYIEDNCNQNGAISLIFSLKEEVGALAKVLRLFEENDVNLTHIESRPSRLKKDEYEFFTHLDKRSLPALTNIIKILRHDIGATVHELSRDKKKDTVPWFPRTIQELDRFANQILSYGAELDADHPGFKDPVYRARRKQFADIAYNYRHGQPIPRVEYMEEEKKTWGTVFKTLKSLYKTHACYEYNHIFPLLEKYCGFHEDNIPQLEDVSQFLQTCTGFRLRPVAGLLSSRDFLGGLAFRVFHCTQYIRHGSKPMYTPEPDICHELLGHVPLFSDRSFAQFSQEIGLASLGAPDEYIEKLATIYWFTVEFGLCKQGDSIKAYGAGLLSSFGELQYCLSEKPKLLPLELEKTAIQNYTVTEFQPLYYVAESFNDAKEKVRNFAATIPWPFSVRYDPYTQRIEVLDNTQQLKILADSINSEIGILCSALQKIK
Outline: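 A375 cells stably expressing human PAH R408W treated 24 h at 37° C with a 10-point 2-fold dose curve in duplicate, 0.5% DMSO. Then 20 μM sepiapterin and 800 μM 13C9,15N-Phe added for 4 h; 13C-Tyr in media measured by LC-MS to give AC50.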

Structure (SMILES)	AC50 [µM]
CC(C)(O)c1nc(C(F)F)c(C(=O)N2CCc3[nH]cnc3C2c2nc3cc(C#N)ccc3o2)o1 (centres unmarked)	1 to 5
O=C(c1ccn(-c2ccccn2)n1)N1CCc2[nH]cnc2C1c1nc2ccccc2o1 (centres unmarked) [listing 1 of 2 here]	≥ 5
Cc1ccc2oc(C3c4nc[nH]c4CCN3C(=O)c3nc(C)nn3C)nc2c1 (centres unmarked) [listing 1 of 2 here]	≥ 5
Cn1nc(C(C)(C)C)cc1C(=O)N1CCc2[nH]cnc2C1c1nc2ccccc2o1 (centres unmarked) [listing 1 of 2 here]	≥ 5
COc1cccc2nc(C3c4nc[nH]c4CCN3C(=O)c3cc(C(C)(C)C)nn3C)oc12 (centres unmarked) [listing 1 of 2 here]	≥ 5
Cn1nc(C(C)(C)C)cc1C(=O)N1CCc2[nH]cnc2C1c1nc2cccc(F)c2o1 (centres unmarked) [listing 1 of 2 here]	≥ 5
CC(C)(O)c1nnc(C(=O)N2CCc3[nH]cnc3C2c2nc3cc(F)ccc3o2)o1 (centres unmarked) [listing 1 of 2 here]	≥ 5
Cc1ccc2nc(C3c4nc[nH]c4CCN3C(=O)c3nnc(C(C)(C)O)o3)oc2c1 (centres unmarked) [listing 1 of 2 here]	≥ 5
O=C(c1ncc(Cl)s1)N1CCc2[nH]cnc2C1c1nc2cc(F)ccc2o1 (centres unmarked)	1 to 5
COCc1ccc2c(C(=O)N3CCc4[nH]cnc4C3c3nc4ccc(C)cc4o3)cnn2c1 (centres unmarked) [listing 1 of 2 here]	≥ 5
O=C(C1CC1(F)F)N1CCc2[nH]cnc2C1c1nc2cc(F)ccc2o1 (centres unmarked)	≥ 5
COCCNc1ccc2c(C(=O)N3CCc4[nH]cnc4C3c3nc4cc(F)ccc4o3)cnn2c1 (centres unmarked) [listing 1 of 2 here]	≥ 5
Cn1cncc1-c1nnc(C(=O)N2CCc3[nH]cnc3C2c2nc3c(F)ccc(F)c3o2)o1 (centres unmarked) [listing 1 of 2 here]	≥ 5
O=C(c1cnc(N2CCC(F)CC2)o1)N1CCc2[nH]cnc2C1c1nc2cc(F)ccc2o1 (centres unmarked) [listing 1 of 2 here]	≥ 5
O=C(c1cnn2cc(OCCn3cccn3)ccc12)N1CCc2[nH]cnc2C1c1nc2cc(F)ccc2o1 (centres unmarked)	≥ 5
O=C(c1cnn2cc(CN3CCOCC3)ccc12)N1CCc2[nH]cnc2C1c1nc2cc(F)ccc2o1 (centres unmarked) [listing 1 of 2 here]	≥ 5
Cc1ccc2oc(C3c4nc[nH]c4CCN3C(=O)c3cnco3)nc2c1 (centres unmarked) [listing 1 of 2 here]	≥ 5
Cc1ccc2oc(C3c4nc[nH]c4CCN3C(=O)c3nnc(C)o3)nc2c1 (centres unmarked) [listing 1 of 2 here]	≥ 5
O=C(c1nccs1)N1CCc2[nH]cnc2C1c1nc2ccc(Br)cc2o1 (centres unmarked) [listing 1 of 2 here]	≥ 5
O=C(c1ccn(-c2ccccn2)n1)N1CCc2[nH]cnc2C1c1nc2cccc(F)c2o1 (centres unmarked) [listing 1 of 2 here]	≥ 5
Cc1cccc2nc(C3c4nc[nH]c4CCN3C(=O)c3ccn(-c4ccccn4)n3)oc12 (centres unmarked) [listing 1 of 2 here]	≥ 5
CN(C)CCOc1ccc2c(C(=O)N3CCc4[nH]cnc4C3c3nc4cc(F)ccc4o3)cnn2c1 (centres unmarked) [listing 1 of 2 here]	≥ 5
Cc1ccc2nc(C3c4nc[nH]c4CCN3C(=O)Cc3nncs3)oc2c1 (centres unmarked)	1 to 5
O=C(c1ccn(CC(F)F)n1)N1CCc2[nH]cnc2C1c1nc2c(F)cccc2o1 (centres unmarked)	1 to 5
O=C(c1ccn(CC(F)F)n1)N1CCc2[nH]cnc2C1c1nc2cccc(F)c2o1 (centres unmarked)	1 to 5

Structure (SMILES)	AC50 [µM]
O=C(c1ccn(CC(F)F)n1)N1CCc2[nH]cnc2C1c1nc2ccccc2o1 (centres unmarked)	1 to 5
O=C(c1ccn(-c2ccccn2)n1)N1CCc2[nH]cnc2C1c1nc2ccccc2o1 (centres unmarked) [listing 2 of 2 here]	1 to 5
Cc1nc(C(=O)N2CCc3[nH]cnc3C2c2nc3c(F)cccc3o2)n(C)n1 (centres unmarked)	1 to 5
Cc1ccc2oc(C3c4nc[nH]c4CCN3C(=O)c3nc(C)nn3C)nc2c1 (centres unmarked) [listing 2 of 2 here]	1 to 5
COc1ccc2oc(C3c4nc[nH]c4CCN3C(=O)c3nc(C)nn3C)nc2c1 (centres unmarked)	1 to 5
Cc1nc(C(=O)N2CCc3[nH]cnc3C2c2nc3c(F)ccc(F)c3o2)n(C)n1 (centres unmarked)	1 to 5
Cc1cccc2nc(C3c4nc[nH]c4CCN3C(=O)c3cc(C(C)(C)C)nn3C)oc12 (centres unmarked)	1 to 5
COc1cccc2nc(C3c4nc[nH]c4CCN3C(=O)c3cc(C(C)(C)C)nn3C)oc12 (centres unmarked) [listing 2 of 2 here]	1 to 5
Cn1nc(C(C)(C)C)cc1C(=O)N1CCc2[nH]cnc2C1c1nc2ccccc2o1 (centres unmarked) [listing 2 of 2 here]	1 to 5
Cn1nc(C(C)(C)C)cc1C(=O)N1CCc2[nH]cnc2C1c1nc2cccc(F)c2o1 (centres unmarked) [listing 2 of 2 here]	1 to 5
CC(C)(O)c1nnc(C(=O)N2CCc3[nH]cnc3C2c2nc3c(F)ccc(F)c3o2)o1 (centres unmarked)	1 to 5
CC(C)(O)c1nnc(C(=O)N2CCc3[nH]cnc3C2c2nc3cc(F)ccc3o2)o1 (centres unmarked) [listing 2 of 2 here]	1 to 5
CC(C)(O)c1cc(C(=O)N2CCc3[nH]cnc3C2c2nc3cc(F)ccc3o2)on1 (centres unmarked)	1 to 5
Cc1ccc2nc(C3c4nc[nH]c4CCN3C(=O)c3nnc(C(C)(C)O)o3)oc2c1 (centres unmarked) [listing 2 of 2 here]	1 to 5
O=C(c1nnc(-c2cnn(C(F)F)c2)o1)N1CCc2[nH]cnc2C1c1nc2cccc(C(F)(F)F)c2o1 (centres unmarked)	1 to 5
Cn1cnc(-c2nnc(C(=O)N3CCc4[nH]cnc4C3c3nc4cccc(C(F)(F)F)c4o3)o2)c1 (centres unmarked)	1 to 5
Cn1cncc1-c1nnc(C(=O)N2CCc3[nH]cnc3C2c2nc3cccc(C(F)(F)F)c3o2)o1 (centres unmarked)	1 to 5
COCc1ccc2c(C(=O)N3CCc4[nH]cnc4C3c3nc4ccc(C)cc4o3)cnn2c1 (centres unmarked) [listing 2 of 2 here]	1 to 5
COCCNc1ccc2c(C(=O)N3CCc4[nH]cnc4C3c3nc4cc(F)ccc4o3)cnn2c1 (centres unmarked) [listing 2 of 2 here]	1 to 5
O=C1CN(CCc2ccc3c(C(=O)N4CCc5[nH]cnc5C4c4nc5cc(F)ccc5o4)cnn3c2)CCN1 (centres unmarked)	1 to 5
Cn1ncnc1C(=O)N1CCc2[nH]cnc2C1c1nc2c(F)ccc(F)c2o1 (centres unmarked)	1 to 5
Cn1cncc1-c1nnc(C(=O)N2CCc3[nH]cnc3C2c2nc3c(F)ccc(F)c3o2)o1 (centres unmarked) [listing 2 of 2 here]	1 to 5
Cc1nnc(C(=O)N2CCc3[nH]cnc3C2c2nc3c(F)ccc(F)c3o2)o1 (centres unmarked)	1 to 5
O=C(c1cnc(N2CCC(F)CC2)o1)N1CCc2[nH]cnc2C1c1nc2cc(F)ccc2o1 (centres unmarked) [listing 2 of 2 here]	1 to 5
O=C(c1nnc(N2CC(F)C2)o1)N1CCc2[nH]cnc2C1c1nc2cc(F)ccc2o1 (centres unmarked)	1 to 5

Structure (SMILES)	AC50 [µM]
O=C(c1nnc(N2CCC(F)CC2)o1)N1CCc2[nH]cnc2C1c1nc2cc(F)ccc2o1 (centres unmarked)	1 to 5
O=C(c1nnc(N2CCOCC2)o1)N1CCc2[nH]cnc2C1c1nc2cc(F)ccc2o1 (centres unmarked)	1 to 5
O=C(c1cnn2cc(CN3CCOCC3)ccc12)N1CCc2[nH]cnc2C1c1nc2cc(F)ccc2o1 (centres unmarked) [listing 2 of 2 here]	1 to 5
Cc1ccc2oc(C3c4nc[nH]c4CCN3C(=O)c3cnco3)nc2c1 (centres unmarked) [listing 2 of 2 here]	1 to 5
Cc1ccc2oc(C3c4nc[nH]c4CCN3C(=O)c3nnc(C)o3)nc2c1 (centres unmarked) [listing 2 of 2 here]	1 to 5
O=C(c1nccs1)N1CCc2[nH]cnc2C1c1nc2ccc(Br)cc2o1 (centres unmarked) [listing 2 of 2 here]	1 to 5
O=C(c1ccn(-c2ccccn2)n1)N1CCc2[nH]cnc2C1c1nc2cccc(F)c2o1 (centres unmarked) [listing 2 of 2 here]	1 to 5
Cc1cccc2nc(C3c4nc[nH]c4CCN3C(=O)c3ccn(-c4ccccn4)n3)oc12 (centres unmarked) [listing 2 of 2 here]	1 to 5
O=C(c1nnc(NC2CC2)o1)N1CCc2[nH]cnc2C1c1nc2cc(F)ccc2o1 (centres unmarked)	1 to 5
CN(C)CCOc1ccc2c(C(=O)N3CCc4[nH]cnc4C3c3nc4cc(F)ccc4o3)cnn2c1 (centres unmarked) [listing 2 of 2 here]	1 to 5
CN(C)CCCc1ccc2c(C(=O)N3CCc4[nH]cnc4C3c3nc4cc(F)ccc4o3)cnn2c1 (centres unmarked)	≥ 5
Cc1ccc2oc(C3c4nc[nH]c4CCN3C(=O)c3cnn4cc(CN(C)C)ccc34)nc2c1 (centres unmarked)	1 to 5
Cc1ncoc1C(=O)N1CC2(CC2)c2[nH]cnc2C1c1nc2cc(F)ccc2o1 (centres unmarked) [listing 1 of 2 here]	≥ 5
Cc1ncoc1C(=O)N1CC2(CC2)c2[nH]cnc2C1c1nc2cc(F)ccc2o1 (centres unmarked) [listing 2 of 2 here]	1 to 5
O=C(c1nnc(CCN2CC(F)C2)o1)N1CCc2[nH]cnc2C1c1nc2cc(F)ccc2o1 (centres unmarked)	≥ 5
CC1CN(C(=O)c2oc(C(C)(C)O)nc2C(F)F)C(c2nc3cc(F)ccc3o2)c2nc[nH]c21 (centres unmarked) [listing 1 of 4 here]	≥ 5
CC1CN(C(=O)c2oc(C(C)(C)O)nc2C(F)F)C(c2nc3cc(F)ccc3o2)c2nc[nH]c21 (centres unmarked) [listing 2 of 4 here]	1 to 5
CC1CN(C(=O)c2oc(C(C)(C)O)nc2C(F)F)C(c2nc3cc(F)ccc3o2)c2nc[nH]c21 (centres unmarked) [listing 3 of 4 here]	1 to 5
CC1CN(C(=O)c2oc(C(C)(C)O)nc2C(F)F)C(c2nc3cc(F)ccc3o2)c2nc[nH]c21 (centres unmarked) [listing 4 of 4 here]	1 to 5
O=C(c1cn(-c2ccccn2)nc1Cl)N1CCc2[nH]cnc2[C@@H]1c1nc2cc(F)ccc2o1 (single isomer, unassigned)	≥ 5
O=C(c1cnn2cc(CN3CC(F)C3)ccc12)N1CCc2[nH]cnc2[C@@H]1c1nc2cc(F)ccc2o1 (single isomer, unassigned)	≥ 5
CN(C)Cc1nnc(C(=O)N2CCc3[nH]cnc3[C@@H]2c2nc3cc(F)ccc3o2)o1 (single isomer, unassigned)	≥ 5
O=C(c1cnn2cc(CN3CCC(F)(F)C3)ccc12)N1CCc2[nH]cnc2[C@H]1c1nc2cc(F)ccc2o1 (single isomer, unassigned)	1 to 5
Cc1nc([C@H](C)O)oc1C(=O)N1CCc2[nH]cnc2C1c1nc2cc(F)ccc2o1 (single isomer, unassigned)	1 to 5

From US20250171437A1 (Agios Pharmaceuticals,Inc., priority 2022, published 2025)
